Legend:
PIK3CA = molecular target: T1, PIK3CA (Homo sapiens, UniProt P42336); experiment: In vitro ELISA target engagement assay for PIK3CA in Jurkat cellular lysate (competition with PIK3CA Biotin Probe); assay type: binding; conditions: 1 hour at rt, then 500 nM PIK3CA Biotin Probe, read-out: Elisa Target Engagement Assay (TE50)
T1 construct: endogenous in cells; host or cells: Jurkat cell lysate
Outline: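 Competition format in Jurkat lysate: compound (serial dilutions, top 200 μM) for 1 h at rt, then 500 nM final biotinylated PIK3CA probe for 1 h at rt. Sandwich ELISA with capture antibody and Neutravidin-HRP luminescence read-out measured probe-labelled PIK3CA, giving TE50.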

PIK3CA_C242 = molecular target: T2, PIK3CA_C242 (Homo sapiens, UniProt P42336); experiment: Proteomic TE50 (IA-DTB / TMT mass spectrometry) in Jurkat cell lysate; assay type: binding; conditions: 1 hour at rt, 7-point dose response
T2 construct: endogenous in cells; host or cells: Jurkat cell lysate
Outline: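 Cysteine engagement was read by targeted TMT MS3 of the IA-DTB-labelled, streptavidin-enriched C242 tryptic peptide. Beforehand, Jurkat lysate was exposed to a 7-point 1:5 compound series for 1 h at rt, then to 200 μM IA-DTB for 1 h. Reporter S/N curves gave TE50.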

T2 sequence (P42336 whole entry): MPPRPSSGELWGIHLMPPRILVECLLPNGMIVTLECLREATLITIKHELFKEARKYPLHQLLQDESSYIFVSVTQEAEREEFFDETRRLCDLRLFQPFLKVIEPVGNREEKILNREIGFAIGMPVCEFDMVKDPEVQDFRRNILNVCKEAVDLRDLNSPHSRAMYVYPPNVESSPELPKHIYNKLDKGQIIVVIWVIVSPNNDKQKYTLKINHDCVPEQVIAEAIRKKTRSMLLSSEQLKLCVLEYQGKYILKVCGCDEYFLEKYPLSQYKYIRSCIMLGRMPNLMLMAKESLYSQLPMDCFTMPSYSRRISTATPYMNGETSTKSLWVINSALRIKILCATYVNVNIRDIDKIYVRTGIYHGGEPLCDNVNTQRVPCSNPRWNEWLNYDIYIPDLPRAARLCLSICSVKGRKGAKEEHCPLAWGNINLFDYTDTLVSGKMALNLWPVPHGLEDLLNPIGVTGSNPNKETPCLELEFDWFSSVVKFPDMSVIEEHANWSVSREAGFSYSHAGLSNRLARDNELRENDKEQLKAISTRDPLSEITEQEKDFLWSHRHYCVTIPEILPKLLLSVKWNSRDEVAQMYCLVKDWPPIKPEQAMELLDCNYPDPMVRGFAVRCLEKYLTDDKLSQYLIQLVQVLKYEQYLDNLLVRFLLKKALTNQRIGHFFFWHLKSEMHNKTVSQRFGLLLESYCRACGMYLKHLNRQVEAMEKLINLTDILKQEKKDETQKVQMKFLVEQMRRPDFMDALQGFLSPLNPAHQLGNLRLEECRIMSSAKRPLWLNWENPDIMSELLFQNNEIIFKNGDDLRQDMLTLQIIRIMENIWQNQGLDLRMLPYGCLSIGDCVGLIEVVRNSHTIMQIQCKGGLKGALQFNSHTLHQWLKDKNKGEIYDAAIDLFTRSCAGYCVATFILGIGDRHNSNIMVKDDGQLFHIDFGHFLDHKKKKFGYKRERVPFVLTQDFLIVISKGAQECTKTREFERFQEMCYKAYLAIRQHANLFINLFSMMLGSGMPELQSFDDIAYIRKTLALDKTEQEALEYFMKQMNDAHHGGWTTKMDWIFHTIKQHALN
T2 sequence (P27986 whole entry partner): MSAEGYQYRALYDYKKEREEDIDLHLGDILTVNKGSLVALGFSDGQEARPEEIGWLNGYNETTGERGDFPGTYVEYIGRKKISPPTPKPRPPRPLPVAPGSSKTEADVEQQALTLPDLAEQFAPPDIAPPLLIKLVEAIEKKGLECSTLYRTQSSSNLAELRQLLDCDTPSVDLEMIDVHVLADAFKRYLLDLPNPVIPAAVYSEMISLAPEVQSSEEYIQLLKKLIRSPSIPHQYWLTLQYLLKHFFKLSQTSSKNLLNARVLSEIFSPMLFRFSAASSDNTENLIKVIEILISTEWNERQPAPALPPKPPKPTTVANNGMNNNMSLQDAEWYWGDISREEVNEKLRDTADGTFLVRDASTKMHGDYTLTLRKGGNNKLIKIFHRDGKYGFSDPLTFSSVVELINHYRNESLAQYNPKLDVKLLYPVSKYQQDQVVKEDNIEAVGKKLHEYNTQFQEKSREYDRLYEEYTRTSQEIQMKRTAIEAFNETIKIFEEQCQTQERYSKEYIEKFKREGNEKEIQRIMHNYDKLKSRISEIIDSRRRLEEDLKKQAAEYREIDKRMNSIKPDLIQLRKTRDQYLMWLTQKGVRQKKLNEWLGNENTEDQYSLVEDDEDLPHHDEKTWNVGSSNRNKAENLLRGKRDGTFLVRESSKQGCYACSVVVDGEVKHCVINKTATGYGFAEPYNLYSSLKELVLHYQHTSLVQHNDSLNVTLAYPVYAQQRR
T1 sequence (P42336 whole entry): as the sequence (P42336 whole entry) above
T1 sequence (P27986 whole entry partner): as the sequence (P27986 whole entry partner) above

SMILES	IC50 (PIK3CA) [nM]	IC50 (PIK3CA_C242) [nM]
C[C@H](/C=C\S(C)(=O)=O)NC(=O)C1(F)CCN(S(=O)(=O)c2ccc(N3CCC3)cc2-c2ccccc2Cl)CC1 [Compound 124, (R,Z)-1-((5-(azetidin-1-yl)-2′-chloro-[1,1′-biphenyl]-2-yl)sulfonyl)-4-fluoro-N-(4-(methylsulfonyl)but-3-en-2-yl)piperidine-4-carboxamide]	320	150
CCCCCOc1cccc(-c2cc(Cl)ccc2S(=O)(=O)N2CCC(F)(C(=O)N[C@@H](C)/C=C\S(C)(=O)=O)CC2)c1 [Compound 262, (S,Z)-1-((5-chloro-3′-(pentyloxy)-[1,1′-biphenyl]-2-yl)sulfonyl)-4-fluoro-N-(4-(methylsulfonyl)but-3-en-2-yl)piperidine-4-carboxamide]	780	430
COc1ccc(S(=O)(=O)N2CCC(F)(C(=O)N[C@H](C)/C=C\S(C)(=O)=O)CC2)c(-c2ccccc2)c1 [Compound 21, (R,Z)-4-fluoro-1-((5-methoxy-[1,1′-biphenyl]-2-yl)sulfonyl)-N-(4-(methylsulfonyl)but-3-en-2-yl)piperidine-4-carboxamide]	1000	1230
N#C/C=C/CNC(=O)C1(F)CCN(S(=O)(=O)c2ccc(Br)cc2-c2ccccc2Cl)CC1 [Compound 68, (E)-1-((5-bromo-2′-chloro-[1,1′-biphenyl]-2-yl)sulfonyl)-N-(3-cyanoallyl)-4-fluoropiperidine-4-carboxamide]	465	330
C[C@H](/C=C\S(C)(=O)=O)NC(=O)C1(F)CCN(S(=O)(=O)c2ncc(Br)cc2-c2ccccc2Cl)CC1 [Compound 218, (R,Z)-1-((5-bromo-3-(2-chlorophenyl)pyridin-2-yl)sulfonyl)-4-fluoro-N-(4-(methylsulfonyl)but-3-en-2-yl)piperidine-4-carboxamide]	560	440
CCOc1ccc(S(=O)(=O)N2CCC(F)(C(=O)N[C@H](C)/C=C\S(C)(=O)=O)CC2)c(-c2ccccc2C)c1 [Compound 102, (R,Z)-1-((5-ethoxy-2′-methyl-[1,1′-biphenyl]-2-yl)sulfonyl)-4-fluoro-N-(4-(methylsulfonyl)but-3-en-2-yl)piperidine-4-carboxamide]	730	610
COc1cccc(-c2cc(F)ccc2S(=O)(=O)N2CCC(F)(C(=O)N[C@@H](C)/C=C\S(C)(=O)=O)CC2)c1 [Compound 9, (S,Z)-4-fluoro-1-((5-fluoro-3′-methoxy-[1,1′-biphenyl]-2-yl)sulfonyl)-N-(4-(methylsulfonyl)but-3-en-2-yl)piperidine-4-carboxamide]	570	507
C[C@@H](/C=C\S(C)(=O)=O)NC(=O)C1(F)CCN(S(=O)(=O)c2ccc(Cl)cc2-c2cccc(OC3CCC3)c2)CC1 [Compound 263, (S,Z)-1-((5-chloro-3′-cyclobutoxy-[1,1′-biphenyl]-2-yl)sulfonyl)-4-fluoro-N-(4-(methylsulfonyl)but-3-en-2-yl)piperidine-4-carboxamide]	1000	930
COc1ccc(S(=O)(=O)N2CCC(F)(C(=O)N[C@H](C)/C=C\S(C)(=O)=O)CC2)c(-c2ccccc2Cl)c1 [Compound 25, (R,Z)-1-((2′-chloro-5-methoxy-[1,1′-biphenyl]-2-yl)sulfonyl)-4-fluoro-N-(4-(methylsulfonyl)but-3-en-2-yl)piperidine-4-carboxamide]	290	238
Cc1ccccc1-c1cc(C(C)C)ccc1S(=O)(=O)N1CCC(F)(C(=O)N[C@H](C)/C=C\S(C)(=O)=O)CC1 [Compound 115, (R,Z)-4-fluoro-1-((5-isopropyl-2′-methyl-[1,1′-biphenyl]-2-yl)sulfonyl)-N-(4-(methylsulfonyl)but-3-en-2-yl)piperidine-4-carboxamide]	520	410
COc1ccc(S(=O)(=O)N2CCC(F)(C(=O)N[C@H](C)/C=C\S(C)(=O)=O)CC2)c(-c2cccc(F)c2Cl)c1 [Compound 26, (R,Z)-1-((2′-chloro-3′-fluoro-5-methoxy-[1,1′-biphenyl]-2-yl)sulfonyl)-4-fluoro-N-(4-(methylsulfonyl)but-3-en-2-yl)piperidine-4-carboxamide]	384	371
C[C@H](/C=C\S(C)(=O)=O)NC(=O)C1(F)CCN(S(=O)(=O)c2ccc(N(C)C)cc2-c2ccccc2)CC1 [Compound 91, (R,Z)-1-((5-(dimethylamino)-[1,1′-biphenyl]-2-yl)sulfonyl)-4-fluoro-N-(4-(methylsulfonyl)but-3-en-2-yl)piperidine-4-carboxamide]	280	430
COc1ccc(S(=O)(=O)N2CCC(F)(C(=O)N[C@@H](C)/C=C\S(C)(=O)=O)CC2)c(-c2cccc(Cl)c2)c1 [Compound 7, (S,Z)-1-((3′-chloro-5-methoxy-[1,1′-biphenyl]-2-yl)sulfonyl)-4-fluoro-N-(4-(methylsulfonyl)but-3-en-2-yl)piperidine-4-carboxamide]	90	107
COc1cc(-c2ccccc2C)c(S(=O)(=O)N2CCC(F)(C(=O)N[C@H](C)/C=C\S(C)(=O)=O)CC2)cn1 [Compound 193, (R,Z)-4-fluoro-1-((6-methoxy-4-(o-tolyl)pyridin-3-yl)sulfonyl)-N-(4-(methylsulfonyl)but-3-en-2-yl)piperidine-4-carboxamide]	290	284
CO/N=C/c1cccc(-c2cc(Cl)ccc2S(=O)(=O)N2CCC(F)(C(=O)N[C@@H](C)/C=C\S(C)(=O)=O)CC2)c1 [Compound 127, 1-((5-chloro-3′-((E)-(methoxyimino)methyl)-[1,1′-biphenyl]-2-yl)sulfonyl)-4-fluoro-N-((S,Z)-4-(methylsulfonyl)but-3-en-2-yl) piperidine-4-carboxamide]	1100	960
COc1cc(-c2ccccc2C)c(S(=O)(=O)N2CCC(F)(C(=O)N[C@@H](C)/C=C\S(C)(=O)=O)CC2)cn1 [Compound 190, (S,Z)-4-fluoro-1-((6-methoxy-4-(o-tolyl)pyridin-3-yl)sulfonyl)-N-(4-(methylsulfonyl)but-3-en-2-yl)piperidine-4-carboxamide]	110	61
CCOc1cccc(-c2cc(Cl)ccc2S(=O)(=O)N2CCC(F)(C(=O)N[C@@H](C)/C=C\S(C)(=O)=O)CC2)c1 [Compound 10, (S,Z)-1-((5-chloro-3′-ethoxy-[1,1′-biphenyl]-2-yl)sulfonyl)-4-fluoro-N-(4-(methylsulfonyl)but-3-en-2-yl)piperidine-4-carboxamide]	320	275
CCCOc1cccc(-c2cc(Cl)ccc2S(=O)(=O)N2CCC(F)(C(=O)N[C@@H](C)/C=C\S(C)(=O)=O)CC2)c1 [Compound 14, (S,Z)-1-((5-chloro-3′-propoxy-[1,1′-biphenyl]-2-yl)sulfonyl)-4-fluoro-N-(4-(methylsulfonyl)but-3-en-2-yl)piperidine-4-carboxamide]	470	330
CC(C)c1ccc(S(=O)(=O)N2CCC(F)(C(=O)N[C@H](C)/C=C\S(C)(=O)=O)CC2)c(-c2ccccc2Cl)c1 [Compound 114, (R,Z)-1-((2′-chloro-5-isopropyl-[1,1′-biphenyl]-2-yl)sulfonyl)-4-fluoro-N-(4-(methylsulfonyl)but-3-en-2-yl)piperidine-4-carboxamide]	610	680
C=C(C)c1ccc(S(=O)(=O)N2CCC(F)(C(=O)N[C@H](C)/C=C\S(C)(=O)=O)CC2)c(-c2ccccc2Cl)c1 [Compound 109, (R,Z)-1-((2′-chloro-5-(prop-1-en-2-yl)-[1,1′-biphenyl]-2-yl)sulfonyl)-4-fluoro-N-(4-(methylsulfonyl)but-3-en-2-yl)piperidine-4-carboxamide]	360	280
C[C@H](/C=C\S(C)(=O)=O)NC(=O)C1(F)CCN(S(=O)(=O)c2cn(C)c(=O)cc2-c2ccccc2Cl)CC1 [Compound 274, (R,Z)-1-((4-(2-chlorophenyl)-1-methyl-6-oxo-1,6-dihydropyridin-3-yl)sulfonyl)-4-fluoro-N-(4-(methylsulfonyl)but-3-en-2-yl)piperidine-4-carboxamide]	1100	570
C[C@H](/C=C\S(C)(=O)=O)NC(=O)C1(F)CCN(S(=O)(=O)c2ccc(Br)cc2-c2ncccc2Cl)CC1 [Compound 204, (R,Z)-1-((4-bromo-2-(3-chloropyridin-2-yl)phenyl)sulfonyl)-4-fluoro-N-(4-(methylsulfonyl)but-3-en-2-yl)piperidine-4-carboxamide]	340	730
C[C@H](/C=C\S(C)(=O)=O)NC(=O)C1(F)CCN(S(=O)(=O)c2cc(=O)n(C)cc2-c2ccccc2Cl)CC1 [Compound 275, (R,Z)-1-((5-(2-chlorophenyl)-1-methyl-2-oxo-1,2-dihydropyridin-4-yl)sulfonyl)-4-fluoro-N-(4-(methylsulfonyl)but-3-en-2-yl)piperidine-4-carboxamide]	1300	910
C[C@@H](/C=C\S(C)(=O)=O)NC(=O)C1(F)CCN(S(=O)(=O)c2ccc(N(C)C)cc2-c2ccccc2)CC1 [Compound 88, (S,Z)-1-((5-(dimethylamino)-[1,1′-biphenyl]-2-yl)sulfonyl)-4-fluoro-N-(4-(methylsulfonyl)but-3-en-2-yl)piperidine-4-carboxamide]	79	86
C[C@H](/C=C\S(C)(=O)=O)NC(=O)C1(F)CCN(S(=O)(=O)c2cnc(Br)cc2-c2ccccc2Cl)CC1 [Compound 277, (R,Z)-1-((6-bromo-4-(2-chlorophenyl)pyridin-3-yl)sulfonyl)-4-fluoro-N-(4-(methylsulfonyl)but-3-en-2yl)piperidine-4-carboxamide]	97	82
